Test results: patent US20240025886A1, “INHIBITORS OF IGF2BP1-RNA BINDING” (YISSUM RESEARCH DEVELOPMENT COMPANY OF THE HEBREW …, priority 2020, published 2024)
Several values for one entry are separate records, joined by “and”; a condition that tells them apart may be missing. Equal values may be shown once. Values belong to the molecule of their own block, whether it stands above or below them.

Key:
[1] = molecular target: T1, Igf2bp1 binding to Kras 6 RNA (Homo sapiens, UniProt Q9NZI8); assay: Fluorescence polarization (FP) assay of Igf2bp1 binding to fluorescent Kras 6 RNA; details: FP dose response; read-out: IC50 for inhibition of Igf2bp1 binding to Kras 6 RNA
T1 construct: Recombinant full-length Igf2bp1 protein; made in house; host or cells: E. coli BL21(DE3)
T1 sequence (Q9NZI8 whole entry): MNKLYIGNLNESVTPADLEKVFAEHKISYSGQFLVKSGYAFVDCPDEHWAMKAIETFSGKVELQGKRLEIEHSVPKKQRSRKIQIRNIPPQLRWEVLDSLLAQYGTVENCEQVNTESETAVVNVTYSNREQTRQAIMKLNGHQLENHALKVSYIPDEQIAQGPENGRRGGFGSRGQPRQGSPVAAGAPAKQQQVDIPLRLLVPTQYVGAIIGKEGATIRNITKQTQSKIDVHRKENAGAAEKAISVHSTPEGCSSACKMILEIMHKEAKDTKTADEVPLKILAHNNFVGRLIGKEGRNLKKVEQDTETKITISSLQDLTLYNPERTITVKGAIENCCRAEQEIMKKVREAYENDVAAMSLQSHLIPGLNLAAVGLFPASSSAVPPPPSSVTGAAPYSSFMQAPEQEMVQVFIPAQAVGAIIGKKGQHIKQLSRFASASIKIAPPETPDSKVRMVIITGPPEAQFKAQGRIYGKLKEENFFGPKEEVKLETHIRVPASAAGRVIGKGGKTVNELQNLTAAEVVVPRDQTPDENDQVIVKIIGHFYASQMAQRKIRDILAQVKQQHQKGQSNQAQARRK
Procedure: For the small molecule screen, compounds were obtained from the collection maintained at the Grand Israel National Center for Personalized Medicine, consisting of molecules purchased from commercial vendors. Labelled RNA (10 nM) was incubated with recombinant Igf2bp1 protein (400 nM) in FAM-RNA buffer (10 mM Tris pH 8.0, 75 mM KCl, 0.5 mM EDTA, 1 mM DTT, 0.0188 U/μL RNAsin, 0.0005 μg/mL heparin, 0.0001 μg/μL tRNA, 0.01% Triton X-100, 3 mM MgCl2, 0.05% IGEPAL) at room temperature for 15 min. […] of this reaction mix was aliquoted with GNF WDII (USA) into wells of 1536 well plates, with a final concentration of […] compound or DMSO. The plates were spun down and read in a BMG Pherastar FS (Germany) plate reader plate reader, in FP mode with a 485/520/520 polarization filter, calibrated to 35 mP for free fluorescein with similar total intensity as experimental samples. […]
To determine the quality of the inventors screening assay, the Z′ factor for each plate was calculated with a Z′ factor greater than 0.5 indicating a robust assay suitable for high throughput screening. Compounds that altered the overall fluorescence intensity compared to controls were considered auto florescence and excluded from further analysis. […] Any small molecule that causes a change of more than three standard deviations from the mean is determined appropriate for further investigation.

[2] = molecular target: T2, Igf2bp1 (Homo sapiens, UniProt Q9NZI8); assay: Microscale thermophoresis (MST) binding to full-length Igf2bp1; details: MST
T2 construct: Recombinant full-length Igf2bp1 protein; made in house; host or cells: E. coli BL21(DE3)
T2 sequence (Q9NZI8 whole entry): as above
Procedure: Recombinant full-length Igf2bp1 protein was labelled with RED-tris-NTA dye using a Monolith NT His-Tag Labelling Kit (NanoTemper) while RRM12, KH12 and KH34 di-domain peptides were labelled using the Protein Labeling Kit RED NHS 2nd generation (NanoTemper). Labelled proteins were spun at 15,000 g for 5 min to eliminate aggregates. All samples were 2× labelled protein mix of Igf2bp1 (200 nM) in PBST and were combined (1:1) with serial dilutions of compound or Kras6 RNA in binding buffer (10 mMTris pH=7.5, 100 mM NaCl, 0.1 mM EDTA, 0.06% IPEGAL, 0.02 μg/μL tRNA, 2 mM DTT, 0.1 μg/μL heparin) in final volume of 20 μL, room temperature for 15 min. Samples were then loaded into standard capillaries (NanoTemper) and read in the Monolith NT.115 scanner (NanoTemper) using the red filter with reading conditions of 95% LED power and 40% MST power, 5 sec fluorescence before, 30 sec MST on, 5 sec fluorescence after and 25 sec delay between samples. Results were analyzed using the MO Control software (NanoTemper) for curve fitting to KD.

[3] = molecular target: T1, Igf2bp1 binding to Kras 6 RNA; assay: EMSA, Igf2bp1 with fluorescent Kras 6 RNA; parameters: dose or concentration left out as unconfirmed
Procedure: Recombinant Igf2bp1 protein was serially diluted (1:1) starting at an initial concentration of 10,000 nM in 0.75 μg heparin, in a total volume of 13 μL. Fluorescently labelled Kras 6 RNA (750 nM) diluted in reaction buffer (10 mM Tris pH 7.5, 100 mM NaCl, 0.1 mM EDTA, 1 mg/mL tRNA, 0.25% IGEPAL (Sigma), 0.5 mM DTT) was heated to 65° C. for 5 minutes, kept on ice for 1 minute and RNasin (200 U/mL) (ThermoScientific, RiboLock RNase inhibitor) was then added. […] RNA was added to each well protein sample, and after a 30 min incubation at room temperature in the dark, loading dye (3 μL) (30% glycerol, 0.01% bromocresol green) was added to each mixture. For compound inhibition experiments, compounds or DMSO were incubated for 4 hours at 37° C. with the protein prior to adding the RNA. Samples were electrophoresed on native TBE polyacrylamide gels (6% acrylamide/bis-acrylamide 37.5:1, 0.5×TBE) that had been pre-run for 30 min. Gels were run at 120V in 0.5×TBE, at 4° C. in the dark. They were then carefully washed and scanned using a Typhoon FLA9500 imager using Alexa 488 laser and LPB1/2 filter. Igf2bp1-RNA complex formation was quantified using the ImageJ software. Prism6 software was used for curve fitting and KD calculations.

[4] = molecular target: Igf2bp1-cMyc RNA interaction (Homo sapiens, UniProt Q9NZI8); details: fluorescence polarization; cited from earlier work
Sequence of Igf2bp1-cMyc RNA interaction (Q9NZI8 whole entry): as above

[5] = system: H1299 cells; assay: Wound healing (cell migration) assay, H1299 cells; assay type: cell-based, human; details: H1299 cells; 10 μM compound 15 vs 20 μM 7773 in FIGS. 20A-B
Procedure: Cells were seeded in 96 IncuCyte® ImageLock plates (20×10^3 cells per well) for 24 hours, to a near confluency of 95%, before the addition of increasing concentrations of compound. After a further 24 hours, wells were scratched using the IncuCyte® 96-well WoundMaker Tool, and the cells cultured for an additional 48 hours using the IncuCyte® S3 Live-Cell Analysis System (Essen BioScience). The plate was imaged at increments of 120 minutes for a period of 48 hours, and then analyzed for relative wound healing.

[6] = Cell proliferation, compound 15 (cell line not stated); assay type: cell-based
[7] = molecular target: T3, La protein (UniProt P05455 P05455:1-408); assay: EMSA; not affected by 7773; details: label: 5'-6FAM
T3 sequence: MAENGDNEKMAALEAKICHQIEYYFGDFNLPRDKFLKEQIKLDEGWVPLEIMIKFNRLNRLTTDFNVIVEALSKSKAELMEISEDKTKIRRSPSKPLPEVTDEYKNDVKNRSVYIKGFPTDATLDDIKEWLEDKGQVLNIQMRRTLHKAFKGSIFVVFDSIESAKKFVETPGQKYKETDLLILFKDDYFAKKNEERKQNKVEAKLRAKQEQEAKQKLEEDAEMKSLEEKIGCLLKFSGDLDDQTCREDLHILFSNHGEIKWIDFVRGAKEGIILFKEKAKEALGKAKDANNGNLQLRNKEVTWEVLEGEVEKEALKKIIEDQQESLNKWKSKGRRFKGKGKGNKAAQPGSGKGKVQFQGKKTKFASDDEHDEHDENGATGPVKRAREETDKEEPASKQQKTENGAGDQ

IC50 [1]: ~90 µM and > 100 µM
Affinity for Igf2bp1 relative to 7773 [2]: approximately seven times lower affinity
Molecule: O=C(c1cccc(-n2cnnn2)c1)N1CCCC(Nc2ccc3c(c2)OCO3)C1 (stereo not shown) [Compound 393, reference compound]
Inhibition of Igf2bp1 binding to Kras 6 RNA (gel shift) [3]: lower, but observable, inhibition of RNA binding

Molecule: NC(=O)c1ccccc1N=Cc1ccc(Br)s1 [BTYNB]
Igf2bp1-cMyc RNA interaction in vitro [4]: inhibited

Molecule: O=C(c1ccc(Cn2c(CO)cc3ccccc32)cc1)N1CCN(c2ccc3c(c2)OCO3)CC1 [Compound 15]
Efficiency at inhibiting wound healing compared to Compound 7773 [5]: over 10 fold
Cell proliferation [6]: inhibition of cell proliferation

Molecule: CCCGUUGCUUUUCCUCUGGGAAGGAUGGCGCACGCUGGG (ssRNA) [Bcl2 RNA oligo]
binding result [7]: binds
